One compound from PubChem BioAssay AID504628 (Vanderbilt High Throughput Screening Facility, 2011) can be followed below.

The target in the assay is Voltage-dependent T-type calcium channel subunit alpha-1H (Homo sapiens) (UniProt O95180). Kind of assay: Cav3.2 current block by patch clamp, late-stage follow-up, orthogonal assay for T-type calcium channel inhibitor project, HEK293 cells, whole-cell recording (AID 504628). As to conditions: HEK293-Cav3.2 whole-cell patch clamp, Ba2+ current; at 1 µM.
Chain of Voltage-dependent T-type calcium channel subunit alpha-1H (Homo sapiens) (O95180 whole entry, looked up): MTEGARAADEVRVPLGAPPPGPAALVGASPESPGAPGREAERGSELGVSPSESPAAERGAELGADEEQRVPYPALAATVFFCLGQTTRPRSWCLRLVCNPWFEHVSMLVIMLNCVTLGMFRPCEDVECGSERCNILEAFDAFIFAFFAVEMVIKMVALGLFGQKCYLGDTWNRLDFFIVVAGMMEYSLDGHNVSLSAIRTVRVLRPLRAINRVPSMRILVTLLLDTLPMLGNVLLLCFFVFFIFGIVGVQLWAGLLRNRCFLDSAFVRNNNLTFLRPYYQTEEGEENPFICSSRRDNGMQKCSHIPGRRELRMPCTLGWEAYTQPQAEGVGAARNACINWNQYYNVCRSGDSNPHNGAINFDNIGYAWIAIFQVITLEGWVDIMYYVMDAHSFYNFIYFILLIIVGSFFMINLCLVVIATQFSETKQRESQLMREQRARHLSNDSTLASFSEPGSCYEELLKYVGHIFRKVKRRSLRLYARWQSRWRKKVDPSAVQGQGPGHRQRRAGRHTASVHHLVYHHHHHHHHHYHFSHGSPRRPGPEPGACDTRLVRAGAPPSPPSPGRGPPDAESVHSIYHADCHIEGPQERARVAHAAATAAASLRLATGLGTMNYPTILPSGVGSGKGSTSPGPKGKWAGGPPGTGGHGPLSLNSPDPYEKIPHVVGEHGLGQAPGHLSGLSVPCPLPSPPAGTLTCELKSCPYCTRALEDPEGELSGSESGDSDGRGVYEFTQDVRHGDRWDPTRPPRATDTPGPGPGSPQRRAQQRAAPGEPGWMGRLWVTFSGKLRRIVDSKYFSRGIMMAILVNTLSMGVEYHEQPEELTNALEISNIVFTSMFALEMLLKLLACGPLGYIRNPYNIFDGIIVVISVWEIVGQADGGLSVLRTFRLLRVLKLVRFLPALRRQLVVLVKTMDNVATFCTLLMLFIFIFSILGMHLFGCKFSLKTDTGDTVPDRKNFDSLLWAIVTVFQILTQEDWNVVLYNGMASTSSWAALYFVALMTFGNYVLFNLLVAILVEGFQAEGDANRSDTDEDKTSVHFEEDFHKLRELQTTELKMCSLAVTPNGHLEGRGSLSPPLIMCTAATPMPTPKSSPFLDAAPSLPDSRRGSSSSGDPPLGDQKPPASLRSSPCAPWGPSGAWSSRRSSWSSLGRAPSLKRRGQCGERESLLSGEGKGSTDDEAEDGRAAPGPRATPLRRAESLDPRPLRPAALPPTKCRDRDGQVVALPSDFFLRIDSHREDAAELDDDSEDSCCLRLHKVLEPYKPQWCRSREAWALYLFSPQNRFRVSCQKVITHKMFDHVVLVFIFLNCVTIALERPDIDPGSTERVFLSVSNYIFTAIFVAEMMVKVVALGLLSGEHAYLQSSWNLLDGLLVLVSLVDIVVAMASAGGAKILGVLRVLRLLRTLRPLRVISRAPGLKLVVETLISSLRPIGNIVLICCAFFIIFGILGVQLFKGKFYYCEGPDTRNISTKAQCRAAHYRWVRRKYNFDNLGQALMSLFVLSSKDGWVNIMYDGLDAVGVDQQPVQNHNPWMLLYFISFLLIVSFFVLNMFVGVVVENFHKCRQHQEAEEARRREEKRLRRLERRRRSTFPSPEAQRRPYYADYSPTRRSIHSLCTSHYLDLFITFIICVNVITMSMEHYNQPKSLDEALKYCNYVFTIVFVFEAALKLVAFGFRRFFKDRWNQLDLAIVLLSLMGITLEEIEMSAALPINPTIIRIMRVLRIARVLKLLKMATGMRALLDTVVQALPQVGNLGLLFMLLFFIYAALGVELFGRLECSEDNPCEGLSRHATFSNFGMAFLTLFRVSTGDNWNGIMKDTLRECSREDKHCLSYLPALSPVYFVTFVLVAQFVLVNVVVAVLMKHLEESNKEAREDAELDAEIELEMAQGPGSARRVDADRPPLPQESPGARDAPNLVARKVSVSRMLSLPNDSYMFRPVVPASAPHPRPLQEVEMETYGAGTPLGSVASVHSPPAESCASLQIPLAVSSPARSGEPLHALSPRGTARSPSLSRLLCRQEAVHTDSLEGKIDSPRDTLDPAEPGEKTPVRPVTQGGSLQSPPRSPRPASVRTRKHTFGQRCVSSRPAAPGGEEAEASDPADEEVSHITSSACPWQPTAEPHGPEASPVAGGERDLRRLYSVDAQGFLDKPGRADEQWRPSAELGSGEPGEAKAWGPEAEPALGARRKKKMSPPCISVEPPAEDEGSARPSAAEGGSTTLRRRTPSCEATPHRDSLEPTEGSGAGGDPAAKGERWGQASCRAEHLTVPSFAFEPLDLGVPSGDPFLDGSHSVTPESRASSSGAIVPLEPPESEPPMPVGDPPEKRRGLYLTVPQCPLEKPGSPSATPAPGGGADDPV

Turning to `CC(C)(C)CCN1C[C@@H]2C(CNC(=O)c3cc(Cl)cc(Cl)c3)[C@@H]2C1` (stereo partly specified), the current is -1010 pA.
